Measured values taken from ChEMBL document CHEMBL2396560, “Discovery of (R)-4-cyclopropyl-7,8-difluoro-5-(4-(trifluoromethyl)phenylsulfonyl)-4,5-dihydro-1H-pyrazolo[4,3-c]quinoline (ELND006) and (R)-4-cyclopropyl-8-fluoro-5-(6-(trifluoromethyl)pyridin-3-ylsulfonyl)-4,5-dihydro-2H-pyrazolo[4,3-c]quinoline (ELND007): metabolically stable γ-secretase …” (J Med Chem, 2013).

What was measured:
[1] = Oral bioavailability in rat; format: ADME, organism-based; conditions: in vivo
[2] = Passive permebility in wild-type MDCK cells; format: ADME, cell-based, Canis lupus familiaris; conditions: dog, read-out: permeability

bioavailability [1]: 30%
Papp [2]: 17.8 ×10⁻⁶ cm/s
SMILES: CC(C)NCC(O)COc1cccc2ccccc12 (configuration not stated) [PROPRANOLOL]
